Experimental data as given in the supplement of paper PMC12076712.

Assays:
Assay in all cases: pIC50, kinobeads binding competition
[1] = molecular target: UniProt Q13557
Method in brief: (§1)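 Jurkat cells were exposed alive to nine compound concentrations (top 30 μM, 1:4 steps) or vehicle for 60 min at 37 °C and then lysed. In a second format, nine concentrations (top 30 μM, 1:5 steps) were incubated for 60 min at 4 °C with Jurkat lysate or with a 1:1:1:1 lysate mix of HEK293, K-562, HepG2 and placenta. Proteins captured on Kinobeads were digested and quantified by TMT10 LC-MS/MS. pIC50 values were derived from logistic dose-response fits (R drc package) of fold changes relative to vehicle, in biological duplicates.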

[2] = molecular target: PRKCQ (UniProt Q04759)
Method in brief: as §1

[3] = molecular target: T1, PRKD3 (UniProt O94806)
T1 sequence (whole entry): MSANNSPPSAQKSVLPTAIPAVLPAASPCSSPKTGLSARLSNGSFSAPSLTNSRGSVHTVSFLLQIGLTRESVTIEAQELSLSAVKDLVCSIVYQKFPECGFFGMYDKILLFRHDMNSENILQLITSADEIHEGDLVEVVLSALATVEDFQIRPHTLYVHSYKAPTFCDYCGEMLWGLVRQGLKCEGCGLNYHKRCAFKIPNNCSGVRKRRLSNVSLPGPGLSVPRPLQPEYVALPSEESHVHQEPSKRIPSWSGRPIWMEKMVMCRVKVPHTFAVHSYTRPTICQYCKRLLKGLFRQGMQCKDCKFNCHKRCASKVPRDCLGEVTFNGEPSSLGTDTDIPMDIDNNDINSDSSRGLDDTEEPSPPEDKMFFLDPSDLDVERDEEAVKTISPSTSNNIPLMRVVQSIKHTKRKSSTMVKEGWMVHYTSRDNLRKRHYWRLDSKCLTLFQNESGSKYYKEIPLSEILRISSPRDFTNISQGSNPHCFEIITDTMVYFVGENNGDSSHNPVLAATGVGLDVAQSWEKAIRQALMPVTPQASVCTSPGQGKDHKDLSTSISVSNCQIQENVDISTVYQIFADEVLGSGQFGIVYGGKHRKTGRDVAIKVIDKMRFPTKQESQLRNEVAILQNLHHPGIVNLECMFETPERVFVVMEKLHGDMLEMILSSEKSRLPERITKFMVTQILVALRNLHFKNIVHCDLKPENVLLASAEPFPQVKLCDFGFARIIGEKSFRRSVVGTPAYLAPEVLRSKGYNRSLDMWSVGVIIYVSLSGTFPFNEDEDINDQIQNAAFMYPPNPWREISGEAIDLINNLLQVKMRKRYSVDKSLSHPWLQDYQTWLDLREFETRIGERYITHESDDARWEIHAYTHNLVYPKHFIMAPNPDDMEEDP
Method in brief: as §1

[4] = molecular target: RIPK2 (UniProt O43353); conditions: cell material: Lysate mix
Method in brief: as §1

[5] = molecular target: UniProt O75582
Method in brief: as §1

[6] = molecular target: T2, PRKX (UniProt P51817)
T2 sequence (whole entry): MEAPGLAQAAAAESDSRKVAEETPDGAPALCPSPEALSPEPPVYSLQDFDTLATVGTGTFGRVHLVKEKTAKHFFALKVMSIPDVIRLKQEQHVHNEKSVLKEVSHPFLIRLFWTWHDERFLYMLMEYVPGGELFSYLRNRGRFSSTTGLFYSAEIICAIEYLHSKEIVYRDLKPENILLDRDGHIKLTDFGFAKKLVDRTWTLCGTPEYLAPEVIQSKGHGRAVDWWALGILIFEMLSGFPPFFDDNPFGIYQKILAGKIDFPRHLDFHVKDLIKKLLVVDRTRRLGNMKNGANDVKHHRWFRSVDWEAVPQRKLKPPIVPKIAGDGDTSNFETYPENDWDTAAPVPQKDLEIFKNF
Method in brief: as §1

[7] = molecular target: UniProt Q07912
Method in brief: as §1

[8] = molecular target: T3, DDR2 (UniProt Q16832); conditions: cell material: Lysate mix
T3 sequence (whole entry): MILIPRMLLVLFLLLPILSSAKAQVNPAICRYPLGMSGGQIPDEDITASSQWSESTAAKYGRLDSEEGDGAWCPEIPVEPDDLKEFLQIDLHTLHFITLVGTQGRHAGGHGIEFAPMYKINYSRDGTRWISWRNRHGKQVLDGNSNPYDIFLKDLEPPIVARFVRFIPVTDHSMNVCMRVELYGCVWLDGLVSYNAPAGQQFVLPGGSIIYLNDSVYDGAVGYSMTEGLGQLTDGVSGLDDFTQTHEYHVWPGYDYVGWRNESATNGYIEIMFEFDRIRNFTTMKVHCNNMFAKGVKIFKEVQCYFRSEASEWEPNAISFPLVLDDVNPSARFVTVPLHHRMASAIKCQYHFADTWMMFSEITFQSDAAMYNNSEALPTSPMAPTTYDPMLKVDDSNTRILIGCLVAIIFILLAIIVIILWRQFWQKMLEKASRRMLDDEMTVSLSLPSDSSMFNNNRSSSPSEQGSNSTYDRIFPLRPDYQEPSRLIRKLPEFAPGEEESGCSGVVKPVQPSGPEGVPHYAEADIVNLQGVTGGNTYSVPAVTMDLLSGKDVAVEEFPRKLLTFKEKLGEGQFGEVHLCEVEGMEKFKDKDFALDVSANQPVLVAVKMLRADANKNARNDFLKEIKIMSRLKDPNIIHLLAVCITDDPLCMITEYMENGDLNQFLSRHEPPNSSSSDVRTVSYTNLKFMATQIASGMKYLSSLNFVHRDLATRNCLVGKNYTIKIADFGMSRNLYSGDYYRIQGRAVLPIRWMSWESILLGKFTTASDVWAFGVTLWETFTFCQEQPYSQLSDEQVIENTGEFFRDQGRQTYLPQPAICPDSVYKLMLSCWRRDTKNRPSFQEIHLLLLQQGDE
Method in brief: as §1

[9] = molecular target: T4, TP53RK (UniProt Q96S44)
T4 sequence (whole entry): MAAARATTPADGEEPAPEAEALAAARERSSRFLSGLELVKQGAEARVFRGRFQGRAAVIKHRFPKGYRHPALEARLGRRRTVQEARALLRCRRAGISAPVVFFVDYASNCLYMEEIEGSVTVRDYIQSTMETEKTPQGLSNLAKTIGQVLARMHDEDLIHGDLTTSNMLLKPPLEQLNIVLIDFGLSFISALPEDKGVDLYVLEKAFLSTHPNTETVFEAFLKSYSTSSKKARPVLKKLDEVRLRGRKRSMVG
Method in brief: as §1

[10] = molecular target: TESK2 (UniProt Q96S53)
Method in brief: as §1

[11] = molecular target: ROCK2 (UniProt O75116)
Method in brief: as §1

Sequence of ROCK2 (O75116 whole entry, looked up): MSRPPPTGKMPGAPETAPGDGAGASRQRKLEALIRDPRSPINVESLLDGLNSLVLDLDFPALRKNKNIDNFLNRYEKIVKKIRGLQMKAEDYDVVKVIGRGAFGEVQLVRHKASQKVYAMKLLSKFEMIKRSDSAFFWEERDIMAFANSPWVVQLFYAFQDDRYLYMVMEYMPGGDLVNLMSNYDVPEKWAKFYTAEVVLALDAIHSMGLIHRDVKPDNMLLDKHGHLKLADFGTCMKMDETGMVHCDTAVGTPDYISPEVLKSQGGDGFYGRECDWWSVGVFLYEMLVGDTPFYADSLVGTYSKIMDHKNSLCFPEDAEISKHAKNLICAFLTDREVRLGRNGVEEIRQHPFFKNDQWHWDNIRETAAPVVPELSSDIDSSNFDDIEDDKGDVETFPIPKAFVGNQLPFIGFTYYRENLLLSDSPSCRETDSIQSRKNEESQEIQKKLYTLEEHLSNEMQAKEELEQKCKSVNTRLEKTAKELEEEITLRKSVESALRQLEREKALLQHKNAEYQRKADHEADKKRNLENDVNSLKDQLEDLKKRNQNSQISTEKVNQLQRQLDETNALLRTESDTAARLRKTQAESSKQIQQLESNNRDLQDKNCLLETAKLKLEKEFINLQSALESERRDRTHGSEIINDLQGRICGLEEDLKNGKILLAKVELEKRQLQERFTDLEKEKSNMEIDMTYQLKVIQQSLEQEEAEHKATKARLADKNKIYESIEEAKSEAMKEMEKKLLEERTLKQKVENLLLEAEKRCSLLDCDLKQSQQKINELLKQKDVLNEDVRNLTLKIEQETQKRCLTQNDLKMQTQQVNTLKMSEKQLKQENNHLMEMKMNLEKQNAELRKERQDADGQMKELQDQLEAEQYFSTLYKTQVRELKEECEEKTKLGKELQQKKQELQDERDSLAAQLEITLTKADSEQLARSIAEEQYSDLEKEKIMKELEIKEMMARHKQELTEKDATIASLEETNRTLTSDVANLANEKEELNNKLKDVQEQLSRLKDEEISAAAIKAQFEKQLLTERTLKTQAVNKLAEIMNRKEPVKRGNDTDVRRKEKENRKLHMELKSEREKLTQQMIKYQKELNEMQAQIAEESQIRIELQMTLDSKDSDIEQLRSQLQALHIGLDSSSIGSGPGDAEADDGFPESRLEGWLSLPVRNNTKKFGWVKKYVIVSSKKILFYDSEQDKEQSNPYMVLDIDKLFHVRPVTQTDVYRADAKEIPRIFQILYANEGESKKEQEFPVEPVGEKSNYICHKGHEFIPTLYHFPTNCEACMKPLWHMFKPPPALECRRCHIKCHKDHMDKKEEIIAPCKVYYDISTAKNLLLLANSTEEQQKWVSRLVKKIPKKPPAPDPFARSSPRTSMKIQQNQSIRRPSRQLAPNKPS
Sequence of RIPK2 (O43353 whole entry): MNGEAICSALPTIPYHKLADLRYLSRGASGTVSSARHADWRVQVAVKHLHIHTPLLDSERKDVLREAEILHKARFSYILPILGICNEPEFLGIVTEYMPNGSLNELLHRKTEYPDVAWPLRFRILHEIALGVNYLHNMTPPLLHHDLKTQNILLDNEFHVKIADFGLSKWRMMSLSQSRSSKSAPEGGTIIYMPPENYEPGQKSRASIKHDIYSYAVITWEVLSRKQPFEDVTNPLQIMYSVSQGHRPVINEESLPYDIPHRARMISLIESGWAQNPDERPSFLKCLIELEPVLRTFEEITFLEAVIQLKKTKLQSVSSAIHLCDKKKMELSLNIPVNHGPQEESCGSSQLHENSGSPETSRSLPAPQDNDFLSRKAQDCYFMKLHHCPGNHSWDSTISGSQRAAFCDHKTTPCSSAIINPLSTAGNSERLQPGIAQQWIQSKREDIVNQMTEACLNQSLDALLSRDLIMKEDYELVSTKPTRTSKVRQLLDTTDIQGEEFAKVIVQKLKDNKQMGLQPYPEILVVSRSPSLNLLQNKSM
Sequence of UniProt Q07912 (Q07912 whole entry, looked up): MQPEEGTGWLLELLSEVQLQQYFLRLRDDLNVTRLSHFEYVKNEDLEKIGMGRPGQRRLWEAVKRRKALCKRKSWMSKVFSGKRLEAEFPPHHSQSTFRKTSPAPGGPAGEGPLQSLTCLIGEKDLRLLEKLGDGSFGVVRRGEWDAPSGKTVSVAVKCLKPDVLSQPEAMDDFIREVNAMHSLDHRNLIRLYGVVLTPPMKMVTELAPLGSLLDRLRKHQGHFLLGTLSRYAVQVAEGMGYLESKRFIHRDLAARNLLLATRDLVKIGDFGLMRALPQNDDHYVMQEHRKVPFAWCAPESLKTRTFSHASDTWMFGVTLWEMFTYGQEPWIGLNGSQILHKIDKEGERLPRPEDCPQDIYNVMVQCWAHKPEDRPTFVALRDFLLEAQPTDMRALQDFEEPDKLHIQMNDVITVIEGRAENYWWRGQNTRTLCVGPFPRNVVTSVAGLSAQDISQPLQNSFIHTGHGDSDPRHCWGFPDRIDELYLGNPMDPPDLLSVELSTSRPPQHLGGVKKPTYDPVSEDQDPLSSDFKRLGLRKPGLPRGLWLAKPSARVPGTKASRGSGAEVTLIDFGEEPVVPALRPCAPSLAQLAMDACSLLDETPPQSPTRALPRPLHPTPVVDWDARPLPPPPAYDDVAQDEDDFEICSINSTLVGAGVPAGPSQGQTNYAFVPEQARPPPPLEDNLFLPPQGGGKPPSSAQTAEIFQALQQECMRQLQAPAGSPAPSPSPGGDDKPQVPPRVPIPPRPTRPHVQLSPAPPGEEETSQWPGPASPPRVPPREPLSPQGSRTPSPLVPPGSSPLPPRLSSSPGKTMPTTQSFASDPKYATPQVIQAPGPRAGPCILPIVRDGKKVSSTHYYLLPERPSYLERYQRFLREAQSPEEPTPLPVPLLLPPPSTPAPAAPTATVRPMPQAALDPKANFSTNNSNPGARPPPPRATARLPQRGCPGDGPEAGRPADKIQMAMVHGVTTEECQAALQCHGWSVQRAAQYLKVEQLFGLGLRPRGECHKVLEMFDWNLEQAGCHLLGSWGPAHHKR
Sequence of UniProt Q13557 (Q13557 whole entry): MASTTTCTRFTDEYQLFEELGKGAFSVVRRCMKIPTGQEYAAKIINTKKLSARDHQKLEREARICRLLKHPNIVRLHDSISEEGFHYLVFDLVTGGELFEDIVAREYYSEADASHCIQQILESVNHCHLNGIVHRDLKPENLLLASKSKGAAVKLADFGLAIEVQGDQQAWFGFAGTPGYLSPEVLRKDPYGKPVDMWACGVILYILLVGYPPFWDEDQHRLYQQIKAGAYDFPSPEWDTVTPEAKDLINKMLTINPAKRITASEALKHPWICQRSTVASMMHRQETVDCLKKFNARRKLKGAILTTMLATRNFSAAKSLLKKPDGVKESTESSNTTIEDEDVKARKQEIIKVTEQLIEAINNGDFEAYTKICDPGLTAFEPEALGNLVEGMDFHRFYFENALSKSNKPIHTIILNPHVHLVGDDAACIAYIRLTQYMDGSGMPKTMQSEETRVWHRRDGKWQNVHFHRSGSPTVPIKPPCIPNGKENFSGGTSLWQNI
Sequence of TESK2 (Q96S53 whole entry, looked up): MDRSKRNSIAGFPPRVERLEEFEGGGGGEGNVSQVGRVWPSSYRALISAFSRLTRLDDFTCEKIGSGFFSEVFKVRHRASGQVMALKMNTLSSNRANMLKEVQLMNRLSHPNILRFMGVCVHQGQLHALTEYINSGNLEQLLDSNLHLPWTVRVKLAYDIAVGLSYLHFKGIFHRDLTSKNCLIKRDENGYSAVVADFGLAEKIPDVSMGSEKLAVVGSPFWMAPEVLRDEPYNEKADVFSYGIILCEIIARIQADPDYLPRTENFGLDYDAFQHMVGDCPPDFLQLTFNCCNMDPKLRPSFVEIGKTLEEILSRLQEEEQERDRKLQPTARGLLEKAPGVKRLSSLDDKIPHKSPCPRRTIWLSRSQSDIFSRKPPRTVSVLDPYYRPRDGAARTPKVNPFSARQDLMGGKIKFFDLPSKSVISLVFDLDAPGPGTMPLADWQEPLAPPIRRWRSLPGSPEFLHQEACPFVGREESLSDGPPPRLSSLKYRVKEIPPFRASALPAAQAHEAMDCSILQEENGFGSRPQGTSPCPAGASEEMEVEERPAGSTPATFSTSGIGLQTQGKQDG
Sequence of PRKCQ (Q04759 whole entry, looked up): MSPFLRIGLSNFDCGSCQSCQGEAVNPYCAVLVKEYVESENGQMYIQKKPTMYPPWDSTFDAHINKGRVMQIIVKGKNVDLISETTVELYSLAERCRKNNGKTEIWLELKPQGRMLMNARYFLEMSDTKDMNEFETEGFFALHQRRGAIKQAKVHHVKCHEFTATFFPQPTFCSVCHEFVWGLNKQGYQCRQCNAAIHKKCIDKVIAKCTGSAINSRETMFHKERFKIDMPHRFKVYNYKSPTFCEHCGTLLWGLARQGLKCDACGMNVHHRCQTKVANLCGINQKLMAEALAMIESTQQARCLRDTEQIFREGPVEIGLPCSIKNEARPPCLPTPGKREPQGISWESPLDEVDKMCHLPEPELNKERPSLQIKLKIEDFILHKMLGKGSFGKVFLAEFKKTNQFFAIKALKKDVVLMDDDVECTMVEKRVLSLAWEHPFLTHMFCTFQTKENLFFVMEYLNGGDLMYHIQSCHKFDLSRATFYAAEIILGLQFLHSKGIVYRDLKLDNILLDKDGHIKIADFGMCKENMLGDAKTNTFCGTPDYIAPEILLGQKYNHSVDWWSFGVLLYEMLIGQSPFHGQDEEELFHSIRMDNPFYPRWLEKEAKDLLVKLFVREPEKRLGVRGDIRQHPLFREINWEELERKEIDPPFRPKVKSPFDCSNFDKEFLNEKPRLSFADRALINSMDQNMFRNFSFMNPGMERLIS

| pIC50 ([1]; cell material: Lysate mix) | pIC50 ([2]; cell material: Lysate mix) | pIC50 ([3]; cell material: Lysate mix) | pIC50 [4] | pIC50 ([5]; cell material: Lysate mix) | pIC50 ([6]; cell material: Lysate mix) | pIC50 ([7]; cell material: Lysate mix) | pIC50 [8] | pIC50 ([9]; cell material: Lysate mix) | pIC50 ([10]; cell material: Lysate mix) | pIC50 ([11]; cell material: Lysate mix) | SMILES | pIC50 ([1]; cell material: Jurkat cells) | pIC50 ([1]; cell material: Jurkat lysate) | pIC50 ([2]; cell material: Jurkat lysate) | pIC50 ([3]; cell material: Jurkat lysate) | pIC50 ([5]; cell material: Jurkat cells) | pIC50 ([5]; cell material: Jurkat lysate) | pIC50 ([6]; cell material: Jurkat cells) | pIC50 ([6]; cell material: Jurkat lysate) | pIC50 ([7]; cell material: Jurkat cells) | pIC50 ([7]; cell material: Jurkat lysate) | pIC50 ([9]; cell material: Jurkat cells) | pIC50 ([9]; cell material: Jurkat lysate) | pIC50 ([10]; cell material: Jurkat lysate) | pIC50 ([11]; cell material: Jurkat cells) | pIC50 ([2]; cell material: Jurkat cells) | pIC50 ([3]; cell material: Jurkat cells) | pIC50 ([10]; cell material: Jurkat cells) |
| --- | --- | --- | --- | --- | --- | --- | --- | --- | --- | --- | --- | --- | --- | --- | --- | --- | --- | --- | --- | --- | --- | --- | --- | --- | --- | --- | --- | --- |
| < 4.52 | < 4.52 | < 4.52 | < 4.52 | < 4.52 | < 4.52 | < 4.52 | < 4.52 | < 4.52 | < 4.52 | < 4.52 | O=C(NCCNC(=O)c1cc(Nc2cc(C3CC3)[nH]n2)nc(N2CCN(Cc3ccc(S(=O)(=O)F)cc3)CC2)n1)OC1CC/C=C/CCC1 (configuration not stated) | < 4.52 | < 4.52 | < 4.52 | < 4.52 | 5.6 | < 4.52 | 5.28 | < 4.52 | < 4.52 | < 4.52 | < 4.52 | < 4.52 | < 4.52 | < 4.52 |  |  |  |
| < 4.52 | < 4.52 | < 4.52 | < 4.52 | < 4.52 | < 4.52 | < 4.52 | < 4.52 | < 4.52 | < 4.52 | < 4.52 | Cc1cc(Nc2cc(C(=O)NCCNC(=O)OC3CC/C=C/CCC3)nc(N3CCN(Cc4ccc(S(=O)(=O)F)cc4)CC3)n2)n[nH]1 (configuration not stated) |  |  |  |  |  |  |  |  |  |  |  |  |  |  |  |  |  |
| < 4.52 | < 4.52 | < 4.52 | < 4.52 | 5.35 | 5 | < 4.52 | 4.57 | < 4.52 | < 4.52 | < 4.52 | CCNC(=O)c1cc(Nc2cc(C3CC3)[nH]n2)nc(N2CCN(Cc3ccc(S(=O)(=O)F)cc3)CC2)n1 |  |  |  |  |  |  |  |  |  |  |  |  |  |  |  |  |  |
| < 4.52 | < 4.52 | < 4.52 | < 4.52 | 4.83 | < 4.52 | < 4.52 | < 4.52 | < 4.52 | < 4.52 | < 4.52 | CCNC(=O)c1cc(Nc2cc(C)[nH]n2)nc(N2CCN(Cc3ccc(S(=O)(=O)F)cc3)CC2)n1 |  |  |  |  |  |  |  |  |  |  |  |  |  |  |  |  |  |
| < 4.52 | < 4.52 | < 4.52 | < 4.52 | 5.11 | < 4.52 | < 4.52 | < 4.52 | < 4.52 | < 4.52 | < 4.52 | C#CCNC(=O)c1cc(Nc2cc(C)[nH]n2)nc(N2CCN(Cc3ccc(S(=O)(=O)F)cc3)CC2)n1 |  |  |  |  |  |  |  |  |  |  |  |  |  |  |  |  |  |

| SMILES | pIC50 ([1]; cell material: Lysate mix) | pIC50 ([2]; cell material: Lysate mix) | pIC50 ([3]; cell material: Lysate mix) | pIC50 [4] | pIC50 ([5]; cell material: Lysate mix) | pIC50 ([6]; cell material: Lysate mix) | pIC50 ([7]; cell material: Lysate mix) | pIC50 [8] | pIC50 ([9]; cell material: Lysate mix) | pIC50 ([10]; cell material: Lysate mix) | pIC50 ([11]; cell material: Lysate mix) | pIC50 ([1]; cell material: Jurkat cells) | pIC50 ([1]; cell material: Jurkat lysate) | pIC50 ([2]; cell material: Jurkat lysate) | pIC50 ([3]; cell material: Jurkat lysate) | pIC50 ([5]; cell material: Jurkat cells) | pIC50 ([5]; cell material: Jurkat lysate) | pIC50 ([6]; cell material: Jurkat cells) | pIC50 ([6]; cell material: Jurkat lysate) | pIC50 ([7]; cell material: Jurkat cells) | pIC50 ([7]; cell material: Jurkat lysate) | pIC50 ([9]; cell material: Jurkat cells) | pIC50 ([9]; cell material: Jurkat lysate) | pIC50 ([10]; cell material: Jurkat lysate) | pIC50 ([11]; cell material: Jurkat cells) | pIC50 ([2]; cell material: Jurkat cells) | pIC50 ([3]; cell material: Jurkat cells) | pIC50 ([10]; cell material: Jurkat cells) |
| --- | --- | --- | --- | --- | --- | --- | --- | --- | --- | --- | --- | --- | --- | --- | --- | --- | --- | --- | --- | --- | --- | --- | --- | --- | --- | --- | --- | --- |
| C#CCNC(=O)c1cc(Nc2cc(C3CC3)[nH]n2)nc(N2CCN(Cc3ccc(S(=O)(=O)F)cc3)CC2)n1 | < 4.52 | < 4.52 | < 4.52 | < 4.52 | 5.6 | 5.26 | < 4.52 | < 4.52 | < 4.52 | < 4.52 | < 4.52 | 4.9 | < 4.52 | < 4.52 | < 4.52 | 6 | 4.7 | 5.76 | < 4.52 | 5.16 | < 4.52 | < 4.52 | < 4.52 | < 4.52 | 4.76 | 5.42 | 5.32 | < 4.52 |
